# Test results published in publication PMC3548994 (Biochemistry, 2012).
# Non-standard residues stand in square brackets, D forms with d. No end group written: not given here. pT = C[C@@H](OP(=O)(O)O)[C@H](N)C(=O)O
# Legend:
# [1] = test system: Pin1-WW domain binding surface; test: HSQC NMR of WW53 and mutants versus WW50
# [2] = molecular target: Pin1-WW domain (WW50, Pin1 residues 1-50) (Homo sapiens, UniProt Q13526); test: NMR titration of ^15N-WW50 with phosphate or HEPES; type: binding; conditions: at 10 mM buffer anion and 1 mM WW domain, calculated from KD
# [3] = molecular target: Pin1-WW domain construct WW50 (Pin1 residues 1-50) (UniProt Q13526 1-50, 15N-labelled (uniform) in the NMR titrations); test: NMR titration
# [4] = C-terminal mutants of WW53 compared with WW53 and WW50
molecule,measurement,setting,value
"WW53 E51A/P52A: WW53 construct (Pin1 residues 1-53) with E51A/P52A mutations (MADEEKLPPGWEKRMSRSSGRVYYFNHITNASQWERPSGNSSSGGKNGQGAAA; residues 1-53 (WW domain); UniProt Q13526 1-53, looked up, variant E51A P52A)",HSQC peak shifts of key binding surface residues versus WW53,[1]; [4],progressive peak shifts for key binding surface residues
O=S(=O)(O)CCN1CCN(CCO)CC1 [HEPES],WW domain bound to buffer anion,[2],6%
"WW53 E51A: WW53 construct (Pin1 residues 1-53) with E51A mutation (MADEEKLPPGWEKRMSRSSGRVYYFNHITNASQWERPSGNSSSGGKNGQGAPA; residues 1-53 (WW domain); UniProt Q13526 1-53, looked up, variant E51A)",HSQC peak shifts of key binding surface residues versus WW53,[1]; [4],progressive peak shifts for key binding surface residues
same,HSQC peak shifts of key binding surface residues versus WW53,"[1]; C-terminal mutants of WW53 compared with WW53 and WW50, listed as E51A",progressively shifted some key binding surface peaks toward their WW50 positions
"O=P(O)(O)O [phosphate, sodium phosphate]",WW domain bound to buffer anion,[2],15%
"GVVEVDAAV[pT]PEERHLSKMQQNGY (peptide, UniProt P05067-4 659-682, looked up) [phosphopeptide representing APP residues 659-682 phosphorylated at T668 (pAPP659-682)]",koff,[3],2040 s⁻¹
same,kon,[3],9.1e+07 M⁻¹ s⁻¹
